Experimental data as given in PubChem BioAssay (NCI).
Where “and” joins values, the source holds several entries; their conditions need not be identical. Equal entries are not always repeated.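 Briefly, cells in 96-well plates were exposed to five compound concentrations for 48 h, and endpoints were estimated by linear interpolation. GI50 is the concentration that inhibits growth by half. TGI marks complete inhibition of growth.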

Key:
Assay in all cases: NCI-60 cell line screen, 48 h
A549 NSCLC = test system: A549 NSCLC
MALME-3M melanoma = test system: MALME-3M melanoma
SN12C renal = test system: SN12C renal
HOP-92 NSCLC = test system: HOP-92 NSCLC
UO-31 renal = test system: UO-31 renal
OVCAR-3 ovarian = test system: OVCAR-3 ovarian
NCI-H522 lung = test system: NCI-H522 lung
U251 CNS = test system: U251 CNS
T-47D breast = test system: T-47D breast
MCF7 breast = test system: MCF7 breast

CC1=NN(C(=O)c2ccc(Cl)cc2)C(=O)/C1=C/c1ccccc1O
TGI (A549 NSCLC): > 100 µM
TGI (MALME-3M melanoma): > 100 µM
TGI (SN12C renal): > 100 µM
TGI (HOP-92 NSCLC): > 100 µM
TGI (UO-31 renal): > 100 µM
TGI (OVCAR-3 ovarian): > 100 µM
TGI (NCI-H522 lung): > 100 µM
TGI (U251 CNS): > 100 µM

NCCOCCOCCNc1nc(-c2ccc(Cl)cc2)nc(N2CCN(c3ccccn3)CC2)n1
GI50 (MALME-3M melanoma): 2.18 µM
TGI (MALME-3M melanoma): 4.18 µM
GI50 (T-47D breast): 3.09 µM
TGI (T-47D breast): 9.94 µM
GI50 (SN12C renal): 6.17 µM
TGI (SN12C renal): 20.8 µM
GI50 (HOP-92 NSCLC): 2.36 µM
TGI (HOP-92 NSCLC): 7.57 µM
GI50 (UO-31 renal): 2.07 µM
TGI (UO-31 renal): 5.02 µM
GI50 (OVCAR-3 ovarian): 2.74 µM
TGI (OVCAR-3 ovarian): 6.76 µM

Cc1cc(N=C2C=C(Br)C(=O)C(Br)=C2)cc(CN(CC(=O)O)CC(=O)O)c1O
TGI (A549 NSCLC): > 100 µM
TGI (MALME-3M melanoma): > 100 µM
TGI (T-47D breast): > 100 µM
TGI (SN12C renal): > 100 µM
TGI (MCF7 breast): > 100 µM
TGI (UO-31 renal): > 100 µM
TGI (OVCAR-3 ovarian): > 100 µM
TGI (NCI-H522 lung): > 100 µM
TGI (U251 CNS): > 100 µM

CN1CCc2c1nc(-c1ccc(Cl)cc1)c1c2N(C)CC1
TGI (A549 NSCLC): > 100 µM
TGI (MALME-3M melanoma): > 100 µM
TGI (SN12C renal): 71.1 µM
TGI (UO-31 renal): 32.5 µM
TGI (OVCAR-3 ovarian): 22.8 µM
TGI (U251 CNS): 22.5 µM

Cc1c(-c2ccnc(N)n2)c2c(n1Cc1ccccc1)C(=O)c1ccccc1C2=O
GI50 (A549 NSCLC): > 100 µM
TGI (A549 NSCLC): > 100 µM
GI50 (T-47D breast): 47.8 µM
TGI (T-47D breast): > 100 µM
GI50 (SN12C renal): > 100 µM
TGI (SN12C renal): > 100 µM
GI50 (HOP-92 NSCLC): > 100 µM
TGI (HOP-92 NSCLC): > 100 µM
GI50 (UO-31 renal): 3.28 µM
TGI (UO-31 renal): 21.8 µM
GI50 (OVCAR-3 ovarian): 2.83 µM
TGI (OVCAR-3 ovarian): 21.3 µM
GI50 (NCI-H522 lung): > 100 µM
TGI (NCI-H522 lung): > 100 µM
GI50 (U251 CNS): 3.91 µM
TGI (U251 CNS): 36.2 µM

Cc1nn2c(/C=C3/C(=O)Nc4cc(Cl)ccc43)c(-c3ccccc3)nc2s1
GI50 (A549 NSCLC): 3.28 µM
TGI (A549 NSCLC): 14.9 µM
GI50 (MALME-3M melanoma): 1.89 µM
TGI (MALME-3M melanoma): 3.91 µM
GI50 (T-47D breast): 1.75 µM
TGI (T-47D breast): 4.04 µM
GI50 (SN12C renal): 2.84 µM
TGI (SN12C renal): 11.1 µM
GI50 (MCF7 breast): 5.84 µM
TGI (MCF7 breast): > 100 µM
GI50 (UO-31 renal): 1.59 µM
TGI (UO-31 renal): 3.53 µM
GI50 (OVCAR-3 ovarian): 1.89 µM
TGI (OVCAR-3 ovarian): 3.68 µM
GI50 (NCI-H522 lung): 1.8 µM
TGI (NCI-H522 lung): 4.11 µM
GI50 (U251 CNS): 2.68 µM
TGI (U251 CNS): 8.5 µM

C1=C2CCCC3=Cc4ccccc4OC23Oc2ccccc21
GI50 (A549 NSCLC): 5.87 µM
TGI (A549 NSCLC): > 100 µM
GI50 (MALME-3M melanoma): 7.17 µM
TGI (MALME-3M melanoma): > 100 µM
GI50 (T-47D breast): 2.46 µM
TGI (T-47D breast): > 100 µM
GI50 (SN12C renal): 4.42 µM
TGI (SN12C renal): > 100 µM
GI50 (MCF7 breast): 3.03 µM
TGI (MCF7 breast): 60.6 µM
GI50 (UO-31 renal): 4.86 µM
TGI (UO-31 renal): > 100 µM
GI50 (OVCAR-3 ovarian): 3.06 µM
TGI (OVCAR-3 ovarian): > 100 µM
GI50 (NCI-H522 lung): 2.3 µM
TGI (NCI-H522 lung): 6.2 µM
GI50 (U251 CNS): 4.54 µM
TGI (U251 CNS): > 100 µM

C=CCC1=C(C)C[C@@H]2CCC(=O)C=C12
TGI (A549 NSCLC): > 100 µM
TGI (MALME-3M melanoma): > 100 µM
TGI (SN12C renal): > 100 µM
TGI (HOP-92 NSCLC): > 100 µM
TGI (UO-31 renal): > 100 µM
TGI (OVCAR-3 ovarian): > 100 µM
TGI (NCI-H522 lung): > 100 µM
TGI (U251 CNS): > 100 µM

COC(=O)c1c2c(cc3c1CC1(Cc4cc5c(c(C(C)=O)c4C1)CCC5)C3)CCC2 (stereo not given)
TGI (A549 NSCLC): > 100 µM
TGI (MALME-3M melanoma): > 100 µM
TGI (SN12C renal): > 100 µM
TGI (HOP-92 NSCLC): > 100 µM
TGI (UO-31 renal): > 100 µM
TGI (OVCAR-3 ovarian): > 100 µM
TGI (NCI-H522 lung): > 100 µM
TGI (U251 CNS): > 100 µM

CCCCCC[C@H](C)Nc1nc2ccccc2c2occc12
GI50 (A549 NSCLC): 8.3 µM
TGI (A549 NSCLC): 26.2 µM
GI50 (T-47D breast): 33.2 µM
TGI (T-47D breast): 61.8 µM
GI50 (SN12C renal): 11.2 µM
TGI (SN12C renal): 23.9 µM
GI50 (HOP-92 NSCLC): 5.18 µM
TGI (HOP-92 NSCLC): 20.2 µM
GI50 (MCF7 breast): > 100 µM
TGI (MCF7 breast): > 100 µM
GI50 (UO-31 renal): 4.55 µM
TGI (UO-31 renal): 19.2 µM
GI50 (OVCAR-3 ovarian): 6.27 µM
TGI (OVCAR-3 ovarian): 24.3 µM
GI50 (NCI-H522 lung): 2.26 µM
TGI (NCI-H522 lung): 13.9 µM
GI50 (U251 CNS): 9.94 µM
TGI (U251 CNS): 21.7 µM

C#Cc1c(C)c(/C=C/C(C)=C/C(=O)OC)n(C)c1C
TGI (A549 NSCLC): > 100 µM
TGI (MALME-3M melanoma): > 100 µM
TGI (SN12C renal): > 100 µM
TGI (HOP-92 NSCLC): 85.1 µM
TGI (UO-31 renal): > 100 µM
TGI (OVCAR-3 ovarian): > 100 µM
TGI (NCI-H522 lung): > 100 µM
TGI (U251 CNS): > 100 µM

COc1ccc(/C(Cl)=C/c2cc(OC)ccc2OC)cc1
TGI (A549 NSCLC): > 100 µM
TGI (MALME-3M melanoma): > 100 µM
TGI (SN12C renal): > 100 µM
TGI (HOP-92 NSCLC): > 100 µM
TGI (UO-31 renal): > 100 µM
TGI (NCI-H522 lung): > 100 µM
TGI (U251 CNS): > 100 µM

COc1ccc(CCn2c(=O)c3ccccc3n(C)c2=O)cc1
TGI (A549 NSCLC): > 100 µM
TGI (MALME-3M melanoma): > 100 µM
TGI (SN12C renal): > 100 µM
TGI (UO-31 renal): > 100 µM
TGI (OVCAR-3 ovarian): > 100 µM
TGI (NCI-H522 lung): 95.2 µM
TGI (U251 CNS): > 100 µM

CC(=O)O[C@]1(C)OC(=O)[C@@H](CC(C)C)N1[N+](=O)[O-]
TGI (A549 NSCLC): > 100 µM
TGI (MALME-3M melanoma): > 100 µM
TGI (SN12C renal): > 100 µM
TGI (UO-31 renal): > 100 µM
TGI (OVCAR-3 ovarian): > 100 µM
TGI (NCI-H522 lung): > 100 µM
TGI (U251 CNS): > 100 µM

CC(C)=CCC(OC(=O)C=C(C)C)C1=CC(=O)c2c(O)ccc(O)c2C1=O (stereo not given)
TGI (A549 NSCLC): 18.7 µM
GI50 (MALME-3M melanoma): 0.694 µM
TGI (MALME-3M melanoma): 3.09 µM and 1.07 µM
GI50 (SN12C renal): 1.9 µM
TGI (SN12C renal): 3.94 µM and 2.92 µM
GI50 (HOP-92 NSCLC): 0.365 µM
TGI (HOP-92 NSCLC): 1.38 µM and 1.29 µM
GI50 (MCF7 breast): 2.09 µM and 0.877 µM
TGI (MCF7 breast): 7.86 µM and 2.93 µM
GI50 (UO-31 renal): 0.993 µM
TGI (UO-31 renal): 5.49 µM and 7.74 µM
GI50 (OVCAR-3 ovarian): 0.5 µM
TGI (OVCAR-3 ovarian): 2.07 µM and 2.62 µM
GI50 (NCI-H522 lung): 0.414 µM and 0.104 µM
TGI (NCI-H522 lung): 1.84 µM and 0.231 µM
GI50 (U251 CNS): 1.71 µM
TGI (U251 CNS): 3.61 µM and 9.1 µM

CCOC(=O)N1CCc2cc(OC)c(OC)cc2/C1=C\c1ccc(OC)c(OC)c1
TGI (A549 NSCLC): 80.5 µM
TGI (MALME-3M melanoma): 57.1 µM
TGI (SN12C renal): > 100 µM
TGI (HOP-92 NSCLC): 56.1 µM
TGI (UO-31 renal): 69.5 µM
TGI (OVCAR-3 ovarian): 82.3 µM
TGI (NCI-H522 lung): 77.6 µM
TGI (U251 CNS): 92.9 µM

CC(=O)[O-].[Mn+3].[O-]c1ccccc1C=NCCNCCN=Cc1ccccc1[O-]
GI50 (A549 NSCLC): > 100 µM
TGI (A549 NSCLC): > 100 µM
GI50 (MALME-3M melanoma): 58.1 µM
TGI (MALME-3M melanoma): > 100 µM
GI50 (SN12C renal): > 100 µM
TGI (SN12C renal): > 100 µM
GI50 (UO-31 renal): > 100 µM
TGI (UO-31 renal): > 100 µM
GI50 (OVCAR-3 ovarian): > 100 µM
TGI (OVCAR-3 ovarian): > 100 µM
GI50 (NCI-H522 lung): 66 µM
TGI (NCI-H522 lung): > 100 µM
GI50 (U251 CNS): > 100 µM
TGI (U251 CNS): > 100 µM

C[Si](C)(C)/C=C\CCO
TGI (A549 NSCLC): > 100 µM
TGI (MALME-3M melanoma): > 100 µM
TGI (SN12C renal): > 100 µM
TGI (HOP-92 NSCLC): > 100 µM
TGI (UO-31 renal): > 100 µM
TGI (OVCAR-3 ovarian): > 100 µM
TGI (NCI-H522 lung): > 100 µM
TGI (U251 CNS): > 100 µM

C[C@]12CC[C@H](O)CC1=CC[C@@H]1C2CC[C@]2(C)Nc3c(cnn3-c3ccccc3)CC12 (stereo not given in full)
TGI (A549 NSCLC): 37 µM
TGI (MALME-3M melanoma): 36 µM
TGI (UO-31 renal): 25.3 µM
TGI (OVCAR-3 ovarian): 40.2 µM
TGI (U251 CNS): 14.9 µM

CC(C)(C)C(=CS(=O)/N=C/c1ccccc1)C(C)(C)C (stereo not given)
TGI (A549 NSCLC): > 100 µM
TGI (MALME-3M melanoma): 75.9 µM
TGI (SN12C renal): 51.7 µM
TGI (HOP-92 NSCLC): 51.2 µM
TGI (UO-31 renal): 95.7 µM
TGI (OVCAR-3 ovarian): > 100 µM
TGI (NCI-H522 lung): 63.2 µM
TGI (U251 CNS): 84.7 µM
